According to patent US10442808B2, “Pyrazolo pyrimidine derivatives and their use as MALT1 inhbitors” (NOVARTIS AG, priority 2014, dated 2019):

Test system: IL2 promoter
Assay: Human IL2 promoter reporter gene assay (RGA) in Jurkat cells
Assay type: cell-based
Settings: […], heading: IL2 reporter gene assay IC50, anti-CD28 mAb + PMA stimulation 5.5 h
Description: Human IL2 Promoter Reporter Gene Assay (RGA) in Jurkat Cells
The transfected Jurkat clone K22 290_H23 was propagated in RPMI 1640 supplemented with 10% heat inactivated fetal calf serum, 50 μM 2-mercaptoethanol and 1 mg/ml Geneticin. The cell concentration should not exceed 1×10e6/ml during culturing. The cells should not exceed passage 30. Prior to the assay the cells were washed and prepared to the concentration of 2×10e6 cells/ml.
Compound dilutions were made as 2×-concentrated solutions then diluted ½ by addition to cells. Two hundred and fifty μl of compound dilution and 250 μl of cells were mixed together in wells of a 96-deep well plate. Cells/compounds premix were incubated 30 min at 37° C. and 5% CO2 directly in the deep well plate.
After pre-incubation of cells with compounds, cells were stimulated with anti-CD28 mAb (clone 15E8) at 3 μg/ml+PMA at 1 μg/ml. Both co-stimulants were diluted in culture medium at a 10×-concentrated solution. 10 μl of co-stimulants were pipetted into the white 96-well plates and 100 μl of cell/compound mix was immediately added in duplicates. The cells were stimulated for 5.5 h at 37° C. and 5% CO2.
After cell stimulation, 50 μl of BriteLitePlus reagent (Perkin Elmer) was added to each well and the bioluminescence was measured with a Wallac EnVision reader (Perkin Elmer).

Row | IC50 [nM] | Compound
1 | 72 | C[C@@H](OCc1ccccc1)c1c(NC(=O)Nc2cnc(-n3nccn3)c(C(F)(F)F)c2)cnc2cc(Cl)nn12 [Example 65, (R)-1-(6-(2H-1,2,3-triazol-2-yl)-5-(trifluoromethyl)pyridin-3-yl)-3-(7-(1-(benzyloxy)ethyl)-2-chloropyrazolo[1,5-a]pyrimidin-6-yl)urea]
2 | 63 | CN(C)C(=O)c1c(NC(=O)Nc2cnc(-n3nccn3)c(Cl)c2)cnc2cc(Cl)nn12 [Example 70, 2-chloro-6-(3-(5-chloro-6-(2H-1,2,3-triazol-2-yl)pyridin-3-yl)ureido)-N,N-dimethylpyrazolo[1,5-a]pyrimidine-7-carboxamide]
3 | 46 | COCC1(c2c(NC(=O)Nc3ccnc(C(F)(F)F)c3)cnc3cc(Cl)nn23)CC1 [Example 77, 1-(2-chloro-7-(1-(methoxymethyl)cyclopropyl)pyrazolo[1,5-a]pyrimidin-6-yl)-3-(2-(trifluoromethyl)pyridin-4-yl)urea]
4 | 157 | COCC(C)(OC)c1c(NC(=O)Nc2cnc(-n3nccn3)c(Cl)c2)cnc2cc(Cl)nn12 (centres unmarked) [Example 81, 1-(5-chloro-6-(2H-1,2,3-triazol-2-yl)pyridin-3-yl)-3-(2-chloro-7-(1,2-dimethoxypropan-2-yl)pyrazolo[1,5-a]pyrimidin-6-yl)urea]
5 | 16 | C[C@H](OCCN(C)C)c1c(NC(=O)Nc2cnc(-n3nccn3)c(Cl)c2)cnc2cc(Cl)nn12 [Example 82, (S)-1-(5-chloro-6-(2H-1,2,3-triazol-2-yl)pyridin-3-yl)-3-(2-chloro-7-(1-(2-(dimethylamino)ethoxy)ethyl)pyrazolo[1,5-a]pyrimidin-6-yl)urea]
6 | 49 | CN1CCCC[C@H]1c1c(NC(=O)Nc2cnc(-n3nccn3)c(Cl)c2)cnc2cc(Cl)nn12 [Example 84, (S)-1-(5-chloro-6-(2H-1,2,3-triazol-2-yl)pyridin-3-yl)-3-(2-chloro-7-(1-methylpiperidin-2-yl)pyrazolo[1,5-a]pyrimidin-6-yl)urea]
7 | 14 | COC(c1c(NC(=O)Nc2ccnc(C(F)(F)F)c2)cnc2cc(Cl)nn12)C1CCOCC1 (centres unmarked) [Example 90, 1-(2-chloro-7-(methoxy(tetrahydro-2H-pyran-4-yl)methyl)pyrazolo[1,5-a]pyrimidin-6-yl)-3-(2-(trifluoromethyl)pyridin-4-yl)urea]
8 | 24 | CO[C@@H](C)c1c(NC(=O)Nc2ccnc(C(F)F)c2)cnc2cc(Cl)nn12 [Example 92, (S)-1-(2-chloro-7-(1-methoxyethyl)pyrazolo [1,5-a]pyrimidin-6-yl)-3-(2-(difluoromethyl)pyridin-4-yl)urea]
9 | 59 | CO[C@@H](C)c1c(NC(=O)Nc2cnc(OC(F)F)c(Cl)c2)cnc2cc(Cl)nn12 [Example 93, (S)-1-(5-chloro-6-(difluoromethoxy)pyridin-3-yl)-3-(2-chloro-7-(1-methoxyethyl)pyrazolo[1,5-a]pyrimidin-6-yl)urea]
10 | 60 | CO[C@@H](C)c1c(NC(=O)Nc2cnc(-n3nccn3)c(Cl)c2)cnc2cc(F)nn12 [Example 95, (S)-1-(5-chloro-6-(2H-1,2,3-triazol-2-yl)pyridin-3-yl)-3-(2-fluoro-7-(1-methoxyethyl)pyrazolo [1,5-a]pyrimidin-6-yl)urea]
11 | 218 | COCCO[C@@H](C)c1c(NC(=O)Nc2cnc(OC(F)F)c(Cl)c2)cnc2cc(Cl)nn12 [Example 97, (S)-1-(5-chloro-6-(difluoromethoxy)pyridin-3-yl)-3-(2-chloro-7-(1-(2-methoxyethoxy)ethyl)pyrazolo[1,5-a]pyrimidin-6-yl)urea]

Continued, molecule first:

Row | Compound | IC50 [nM]
12 | COCCC(OC)c1c(NC(=O)Nc2cnc(-n3nccn3)c(Cl)c2)cnc2cc(Cl)nn12 (centres unmarked) [Example 64, 1-(5-chloro-6-(2H-1,2,3-triazol-2-yl)pyridin-3-yl)-3-(2-chloro-7-(1,3-dimethoxypropyl)pyrazolo[1,5-a]pyrimidin-6-yl)urea] | 32
13 | O=C(Nc1cnc(-n2nccn2)c(Cl)c1)Nc1cnc2cc(Cl)nn2c1C1CC12CCOC2 (centres unmarked) [Example 68, 1-(5-chloro-6-(2H-1,2,3-triazol-2-yl)pyridin-3-yl)-3-(2-chloro-7-(5-oxaspiro[2.4]heptan-1-yl)pyrazolo[1,5-a]pyrimidin-6-yl)urea] | 76
14 | COc1ncc(NC(=O)Nc2cnc3cc(Cl)nn3c2-c2ccncc2)cc1Cl [Example 69, 1-(5-chloro-6-methoxypyridin-3-yl)-3-(2-chloro-7-(pyridin-4-yl)pyrazolo[1,5-a]pyrimidin-6-yl)urea] | 206
15 | COCC1(c2c(NC(=O)Nc3cnc(-n4nccn4)c(Cl)c3)cnc3cc(Cl)nn23)CC1 [Example 76, 1-(5-chloro-6-(2H-1,2,3-triazol-2-yl)pyridin-3-yl)-3-(2-chloro-7-(1-(methoxymethyl)cyclopropyl)pyrazolo[1,5-a]pyrimidin-6-yl)urea] | 47
16 | COCC1(c2c(NC(=O)Nc3cnc(-n4nccn4)c(Cl)c3)cnc3cc(C)nn23)CC1 [Example 78, 1-(5-chloro-6-(2H-1,2,3-triazol-2-yl)pyridin-3-yl)-3-(7-(1-(methoxymethyl)cyclopropyl)-2-methylpyrazolo[1,5-a]pyrimidin-6-yl)urea] | 927
17 | COCC1(c2c(NC(=O)Nc3ccnc(C(F)(F)F)c3)cnc3cc(C)nn23)CC1 [Example 79, 1-(7-(1-(methoxymethyl)cyclopropyl)-2-methylpyrazolo[1,5-a]pyrimidin-6-yl)-3-(2-(trifluoromethyl)pyridin-4-yl)urea] | 89
18 | CC(C)(c1c(NC(=O)Nc2ccnc(C(F)(F)F)c2)cnc2cc(Cl)nn12)C1CCOCC1 [Example 80, 1-(2-chloro-7-(2-(tetrahydro-2H-pyran-4-yl)propan-2-yl)pyrazolo[1,5-a]pyrimidin-6-yl)-3-(2-(trifluoromethyl)pyridin-4-yl)urea] | 46
19 | CN1CCOCC1Cc1c(NC(=O)Nc2cnc(-n3nccn3)c(Cl)c2)cnc2cc(Cl)nn12 (centres unmarked) [Example 83, 1-(5-chloro-6-(2H-1,2,3-triazol-2-yl)pyridin-3-yl)-3-(2-chloro-7-((4-methylmorpholin-3-yl)methyl)pyrazolo[1,5-a]pyrimidin-6-yl)urea] | 13
20 | CO[C@H](C)CO[C@@H](C)c1c(NC(=O)Nc2cnc(-n3nccn3)c(Cl)c2)cnc2cc(Cl)nn12 [Example 85, 1-(5-chloro-6-(2H-1,2,3-triazol-2-yl)pyridin-3-yl)-3-(2-chloro-7-((S)-1-((R)-2 methoxypropoxy)ethyl)pyrazolo[1,5-a]pyrimidin-6-yl)urea] | 68
21 | COc1ncc(NC(=O)Nc2cnc3cc(Cl)nn3c2C2CCC(C)O2)cc1Cl (centres unmarked) [Example 87, 1-(5-chloro-6-methoxypyridin-3-yl)-3-(2-chloro-7-(5-methyltetrahydrofuran-2-yl)pyrazolo[1,5-a]pyrimidin-6-yl)urea] | 41
22 | CN(C)C1(c2c(NC(=O)Nc3cnc(-n4nccn4)c(Cl)c3)cnc3cc(Cl)nn23)CC1 [Example 88, 1-(5-chloro-6-(2H-1,2,3-triazol-2-yl)pyridin-3-yl)-3-(2-chloro-7-(1-(dimethylamino)cyclopropyl)pyrazolo[1,5-a]pyrimidin-6-yl)urea] | 84
23 | CO[C@@H](C)c1c(NC(=O)Nc2cnc(-n3nccn3)c(C(F)F)c2)cnc2cc(Cl)nn12 [Example 89, (S)-1-(2-chloro-7-(1-methoxyethyl)pyrazolo [1,5-a]pyrimidin-6-yl)-3-(5-(difluoromethyl)-6-(2H-1,2,3-triazol-2-yl)pyridin-3-yl)urea] | 25
24 | COCC1(c2c(NC(=O)Nc3cnc(-n4nccn4)c(Cl)c3)cnc3cc(Cl)nn23)CCCO1 (centres unmarked) [Example 91, 1-(5-chloro-6-(2H-1,2,3-triazol-2-yl)pyridin-3-yl)-3-(2-chloro-7-(2-(methoxymethyl)tetrahydrofuran-2-yl)pyrazolo[1,5-a]pyrimidin-6-yl)urea] | 50
25 | CO[C@@H](C)c1c(NC(=O)Nc2cnc(-n3nccn3)c(C(F)(F)F)c2)cnc2cc(F)nn12 [Example 94, (S)-1-(6-(2H-1,2,3-triazol-2-yl)-5-(trifluoromethyl)pyridin-3-yl)-3-(2-fluoro-7-(1-methoxyethyl)pyrazolo[1,5-a]pyrimidin-6-yl)urea] | 484
26 | CO[C@@H](C)c1c(NC(=O)Nc2cnc(-n3nccn3)c(Cl)c2)cnc2cc(C#N)nn12 [Example 96, (S)-1-(5-chloro-6-(2H-1,2,3-triazol-2-yl)pyridin-3-yl)-3-(2-cyano-7-(1-methoxyethyl)pyrazolo[1,5-a]pyrimidin-6-yl)urea] | 52
27 | CO[C@H](c1c(NC(=O)Nc2cnc(-n3nccn3)c(Cl)c2)cnc2cc(Cl)nn12)[C@@H](C)OC [Example 98, 1-(5-chloro-6-(2H-1,2,3-triazol-2-yl)pyridin-3-yl)-3-(2-chloro-7-((1R,2R)-1,2-dimethoxypropyl)pyrazolo[1,5-a]pyrimidin-6-yl)urea] | 115
28 | CO[C@@H](C)c1c(NC(=O)Nc2cc(Cl)cnc2OCCN(C)C)cnc2cc(Cl)nn12 [Example 99, (S)-1-(5-chloro-2-(2-(dimethylamino)ethoxy)pyridin-3-yl)-3-(2-chloro-7-(1-methoxyethyl)pyrazolo[1,5-a]pyrimidin-6-yl)urea] | 54
29 | Cc1cc2ncc(NC(=O)Nc3cnc(-n4nccn4)c(Cl)c3)c(C3(C)CCCO3)n2n1 (centres unmarked) [Example 104, 1-(5-chloro-6-(2H-1,2,3-triazol-2-yl)pyridin-3-yl)-3-(2-methyl-7-(2-methyltetrahydrofuran-2-yl)pyrazolo[1,5-a]pyrimidin-6-yl)urea] | 134
